The values below come from patent US20200386744A1, “NOVEL SCREENING METHOD FOR TGF-BETA INHIBITOR” (The Doshisha, priority 2017, published 2020).

Each structure is given as a SMILES string. Where a name gives a salt, the structure may show the parent alone. Read-outs that look alike come from different tables or passages of the source.

Data set [1] has as its system immortalized Fuchs' endothelial corneal dystrophy cells (iFECD). The data set can be described thus: Caspase 3/7 activity (Caspase-Glo 3/7 Assay) in iFECD under TGF-β2 stimulation, primary and secondary screening. The class given is cell-based, human. Particulars: for activity at 10 µM: Homo sapiens. The protocol:
7×10^3 immortalized Fuchs' endothelial corneal dystrophy cells were seeded on a 96-well plate and were cultured for 24 hours under the condition of 5% CO2 at 37° C. Dulbecco's Modified Eagle Medium (DMEM) (nacalai tesque, 26252-94)+10% FBS (Biological Industries/04-001-1A)+1% penicillin-streptomycin (nacalai tesque, 26252-94) was used as the medium. Next, TGF-β2 (manufacturer: R&D Systems, Inc., distributor: Wako Pure Chemical Industries, Ltd./manufacturer codes 302-B2-002, 302-B2-010, distributor codes: 553-62881, 559-62883) (5 ng/mL) alone, or both TGF-β2 (5 ng/mL) and each agent of SCREEN-WELL® FDA Approved Drug Library V2, Japan version (10 μM) were added. After 28 hours under the condition of 5% CO2 at 37° C., cell morphology was observed using a phase difference microscope. Caspase 3/7 activity was then measured using Caspase-Glo 3/7 Assay (Promega, #G8091). DMEM+2% FBS+1% P/S was used as the medium. Caspase 3/7 activity and cell viability in this example were measured using Veritas™ Microplate Luminometer. Such a device enables many samples to be simultaneously measured.
The control group was supplemented with a solvent of each reagent, i.e., DMSO (Dimethyl Sulfoxide, Sterile-filtered) (nacalai tesque, 13408-64). Further, Z-VD-FMK (isomer mixture) (Wako Pure Chemical Industries, Ltd./262-02061) (10 μM), which is a caspase inhibitor, was used as the positive control. In the primary screening, measurement of Caspase 3/7 activity was carried out with n=2. […] Caspase activity was measured after being cultured in Dulbecco's Modified Eagle Medium (DMEM)+2% fetal bovine serum (FBS)+1% penicillin/streptomycin (P/S) for 28 hours.
Measurement was carried out with n=2 as the primary screening and a TGF-β2 (5 ng/mL) supplemented group was set as 100%. […] (1) and (2) of the control group, TGF-β2 (5 ng/mL) supplemented group, TGF-β2 (5 ng/mL)+Z-VD-FMK supplemented group (10 μM) are n=5 in total.
Evaluation of Caspase 3/7 activity was carried out with n=5 in the secondary screening.

Data set [2] shares this test system. The data set can be described thus: Cell viability (CellTiter-Glo Luminescent Cell Viability Assay) in iFECD, secondary screening. In kind it is cell-based, human. The following applies: agent 10 μM, absence of TGF-β; for Secondary screening Viable cell number (%): 28 hours, n=2, vs candidate compound non-contacted group. How it is done:
In one embodiment, step (b) comprises measurement of cell viability. […] The cell viability is measured in the absence of TGF-β. […] The threshold value of the cell viability may be about 80%, about 85%, about 90%, about 95%, about 98%, about 99%, about 100%. […] Thus, a drug can be accurately selected by measuring cell number in addition to measuring caspase activity. Although the compounds shown in Table 2 appeared to be suppressing caspase activity, the compounds had strong toxicity, wherein cell viability went below 90%, and were thereby removed in the secondary screening.
Cell viability is calculated as an indicator of toxicity with n=2 in CellTiter-Glo® Luminescent Cell Viability Assay (Promega catalogue number: G7570). The cell viability was measured after culturing the cells in Dulbecco's Modified Eagle Medium (DMEM)+2% fetal bovine serum (FBS)+1% penicillin/streptomycin (P/S) for 28 hours. The cell viability was measured in the absence of TGF-β. When the cell viability was below 90%, the cells were removed from ranking.

The mark [3] stands for this setting: 28 h, secondary screening Caspase 3/7 activity divided by cell viability, read-out: Caspase 3/7 activity/Viable cell number (%).
The mark [4] stands for this setting: TGF-β2 5 ng/mL + agent 10 μM, 28 hours, n=2, TGF-β2 supplemented group set as 100%, read-out: Primary screening Caspase 3/7 activity (%).
Where [5] appears, read: TGF-β2 5 ng/mL + agent 10 μM, 28 hours, n=5, vs candidate compound non-contacted group, read-out: Secondary screening Caspase 3/7 activity (%).

`CN(C)[C@@H]1C(O)=C(C(N)=O)C(=O)[C@@]2(O)C(O)=C3C(=O)c4c(O)cccc4[C@@](C)(O)[C@H]3C[C@@H]12` [Tetracycline]: the activity at 10 µM in data set [1] (setting [3]) was 94.3%; in data set [1] (setting [4]), 60.1%; in data set [1] (setting [5]) it was 93.7%. The “Cell viability class mark (before Viable cell number)” value (from here on “Cell viability class mark”) in data set [2] is “∘ (90% or more cell viability)”. In addition, the “Secondary screening Viable cell number (%)” value in data set [2] is on record as 99.31%.

On to `O=C(O)c1ccc(-n2nc(-c3ccccc3O)nc2-c2ccccc2O)cc1` [Deferasirox], for which the activity at 10 µM in data set [1] (setting [3]) turned out to be 68.9%; in data set [1] (setting [4]) it was 50%; in data set [1] (setting [5]) it was 38.6%. Further, the “Cell viability class mark” value in data set [2] was “x (less than 90% cell viability)”. For the same compound, the “Secondary screening Viable cell number (%)” value in data set [2] is on record as 56.04%.

Consider `CCCC(=O)Nc1ccc(OCC(O)CNC(C)C)c(C(C)=O)c1.Cl` (stereo not shown) [Acebutolol•HCl], for which the “Primary screening Caspase 3/7 activity (%)” value in data set [1] (TGF-β2 5 ng/mL + agent 10 μM, 28 hours, n=2, TGF-β2 supplemented group set as 100%) turned out to be 74.30%. Moreover, the “Secondary screening Caspase 3/7 activity (%)” value in data set [1] (TGF-β2 5 ng/mL + agent 10 μM, 28 hours, n=5, vs candidate compound non-contacted group) worked out at 88.05%. Besides, the “Caspase 3/7 activity/Viable cell number (%)” value in data set [1] (secondary screening Caspase 3/7 activity divided by cell viability) amounted to 88.25%. Further, in data set [2], the “Cell viability class mark” value is “∘ (90% or more cell viability)” and the “Secondary screening Viable cell number (%)” value came to 99.77%.

Take `COc1c(C)c2c(c(O)c1C/C=C(\C)CCC(=O)OCCN1CCOCC1)C(=O)OC2` [Mycophenolate Mofetil]: the activity at 10 µM was determined as 70.4% in data set [1] (setting [3]), 46.4% in data set [1] (setting [4]) and 47.6% in data set [1] (setting [5]). For the same compound, in data set [2], the “Cell viability class mark” value is “x (less than 90% cell viability)”. For the same compound, the “Secondary screening Viable cell number (%)” value in data set [2] amounted to 67.7%.

With `CN1CC2c3ccccc3Oc3ccc(Cl)cc3C2C1` (stereo not shown) [Asenapine Maleate], the activity at 10 µM was found to be 87.4% in data set [1] (setting [3]), 72.8% in data set [1] (setting [4]) and 88.8% in data set [1] (setting [5]). The “Cell viability class mark” value in data set [2] is reported as “∘ (90% or more cell viability)”. Further, the “Secondary screening Viable cell number (%)” value in data set [2] is recorded as 101.64%.

Turning to `N#Cc1ccc(C(c2ccc(C#N)cc2)n2cncn2)cc1` [Letrozole], the results for the activity at 10 µM in data set [1] (setting [3]), in data set [1] (setting [4]) and in data set [1] (setting [5]) were 102%, 71.2% and 104%, respectively. Further, the “Cell viability class mark” value in data set [2] is given as “∘ (90% or more cell viability)”. Besides, the “Secondary screening Viable cell number (%)” value in data set [2] was found to be 101.3%.

Take `COc1cc(NC(C)CCCN)c2ncccc2c1` (stereo not shown) [Primaquine Phosphate]: in data set [2], the “Cell viability class mark” value is reported as “∘ (90% or more cell viability)” and the “Secondary screening Viable cell number (%)” value came out at 99.7%.

As for `CC(=O)Oc1ccccc1C(=O)Nc1ncc([N+](=O)[O-])s1` [Nitazoxanide], the activity at 10 µM came to 49.3% in data set [1] (setting [3]), 36.5% in data set [1] (setting [4]) and 43.3% in data set [1] (setting [5]). Also, the “Cell viability class mark” value in data set [2] is recorded as “x (less than 90% cell viability)”. The “Secondary screening Viable cell number (%)” value in data set [2] amounted to 87.81%.

Consider `CC[C@@H]1/C=C(\C)C[C@H](C)C[C@H](OC)[C@H]2O[C@@](O)(C(=O)C(=O)N3CCCC[C@H]3C(=O)O[C@H](/C(C)=C/[C@@H]3CC[C@H](Cl)[C@H](OC)C3)[C@H](C)[C@@H](O)CC1=O)[C@H](C)C[C@@H]2OC` [Pimecrolimus], for which the activity at 10 µM in data set [1] (setting [3]) was determined as 62.6%; in data set [1] (setting [4]) it was 70.1%; in data set [1] (setting [5]), 53%. In addition, the “Cell viability class mark” value in data set [2] was “x (less than 90% cell viability)”. In data set [2], the “Secondary screening Viable cell number (%)” value is 84.64%.

Regarding `Cc1[nH]c(=O)c(C#N)cc1-c1ccncc1` [Milrinone], the activity at 10 µM in data set [1] (setting [3]) stood at 95.2%; in data set [1] (setting [4]), 62.5%; in data set [1] (setting [5]), 94.9%. For the same compound, the “Cell viability class mark” value in data set [2] is recorded as “∘ (90% or more cell viability)”. Also, the “Secondary screening Viable cell number (%)” value in data set [2] worked out at 99.67%.

For `COc1ccccc1OCCNCC(O)COc1cccc2[nH]c3ccccc3c12` (stereo not shown) [Carvedilol], the activity at 10 µM is 71.9% in data set [1] (setting [3]), 50.3% in data set [1] (setting [4]) and 64.1% in data set [1] (setting [5]). Also, in data set [2], the “Cell viability class mark” value is listed as “x (less than 90% cell viability)”. Moreover, the “Secondary screening Viable cell number (%)” value in data set [2] is given as 89.1%.
